Measured values as given in ChEMBL document CHEMBL1201862, “PubChem BioAssay data set” (2004).
Values joined by “and” are separate entries in the source; they are usually repeats but may differ in a detail not shown here. Equal values may be shown once. Active and inactive are the calls of the source.

How the values were obtained:
[1] = target: T1, Cytochrome P450 1A2 (Homo sapiens, UniProt P05177);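 further: PubChem cytochrome P450 panel assay, CYP1A2 panel member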
T1 sequence (P05177 whole entry): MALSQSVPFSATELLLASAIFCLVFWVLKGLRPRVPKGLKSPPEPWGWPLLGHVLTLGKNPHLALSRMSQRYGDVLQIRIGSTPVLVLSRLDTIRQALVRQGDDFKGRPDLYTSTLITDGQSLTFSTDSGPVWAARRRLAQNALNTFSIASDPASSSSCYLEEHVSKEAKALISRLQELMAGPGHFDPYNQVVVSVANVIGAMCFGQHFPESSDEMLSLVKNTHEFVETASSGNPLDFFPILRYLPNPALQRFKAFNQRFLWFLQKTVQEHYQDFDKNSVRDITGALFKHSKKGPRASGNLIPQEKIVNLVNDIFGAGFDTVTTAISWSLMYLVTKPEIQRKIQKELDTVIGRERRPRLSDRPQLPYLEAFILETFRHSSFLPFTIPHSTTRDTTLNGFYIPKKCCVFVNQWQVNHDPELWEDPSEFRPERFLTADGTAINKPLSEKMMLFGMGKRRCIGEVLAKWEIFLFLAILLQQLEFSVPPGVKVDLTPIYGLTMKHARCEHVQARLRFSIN

[2] = target: Cytochrome P450 2C9 (Homo sapiens, UniProt P11712)
Cytochrome P450 2C9, sequence (P11712 whole entry): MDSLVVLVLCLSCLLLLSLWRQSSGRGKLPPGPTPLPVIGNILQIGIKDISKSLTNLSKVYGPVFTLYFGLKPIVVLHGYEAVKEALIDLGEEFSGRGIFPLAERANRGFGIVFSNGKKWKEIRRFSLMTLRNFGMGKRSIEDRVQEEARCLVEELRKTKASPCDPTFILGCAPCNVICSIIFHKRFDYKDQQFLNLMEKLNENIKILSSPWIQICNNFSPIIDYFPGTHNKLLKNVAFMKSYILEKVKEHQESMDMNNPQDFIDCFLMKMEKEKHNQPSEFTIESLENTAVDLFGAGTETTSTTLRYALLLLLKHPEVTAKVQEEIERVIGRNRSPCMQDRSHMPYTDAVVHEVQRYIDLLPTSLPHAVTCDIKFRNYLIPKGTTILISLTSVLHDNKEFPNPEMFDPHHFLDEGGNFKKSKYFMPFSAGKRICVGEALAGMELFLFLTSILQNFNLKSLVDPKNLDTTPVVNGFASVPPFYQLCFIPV

[3] = target: Cytochrome P450 3A4 (Homo sapiens, UniProt P08684);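 further: CYP3A4 tested as one member of a cytochrome P450 panel screen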
Cytochrome P450 3A4, sequence (P08684 whole entry): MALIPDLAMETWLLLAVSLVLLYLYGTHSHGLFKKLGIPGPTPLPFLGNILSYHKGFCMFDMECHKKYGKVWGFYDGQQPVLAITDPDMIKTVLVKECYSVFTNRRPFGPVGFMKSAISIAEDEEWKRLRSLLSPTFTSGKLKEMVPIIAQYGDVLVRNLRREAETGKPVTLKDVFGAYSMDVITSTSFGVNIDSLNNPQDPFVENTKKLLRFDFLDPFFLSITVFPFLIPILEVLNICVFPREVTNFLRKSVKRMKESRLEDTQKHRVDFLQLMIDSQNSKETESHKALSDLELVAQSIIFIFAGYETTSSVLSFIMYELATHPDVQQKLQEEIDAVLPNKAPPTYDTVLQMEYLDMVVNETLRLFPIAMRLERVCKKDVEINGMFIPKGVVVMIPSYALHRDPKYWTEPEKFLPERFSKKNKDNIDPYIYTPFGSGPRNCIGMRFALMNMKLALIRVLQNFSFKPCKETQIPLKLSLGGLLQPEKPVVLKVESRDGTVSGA

[4] = target: T2, Rac GTPase-activating protein 1 (Homo sapiens, UniProt Q9H0H5); test: MgcRacGAP GTPase-activating activity inhibitors, confirmation, biochemical, ADP Hunter fluorescence, primary and confirmatory (AID 624330); assay type: functional
T2 sequence (Q9H0H5 whole entry): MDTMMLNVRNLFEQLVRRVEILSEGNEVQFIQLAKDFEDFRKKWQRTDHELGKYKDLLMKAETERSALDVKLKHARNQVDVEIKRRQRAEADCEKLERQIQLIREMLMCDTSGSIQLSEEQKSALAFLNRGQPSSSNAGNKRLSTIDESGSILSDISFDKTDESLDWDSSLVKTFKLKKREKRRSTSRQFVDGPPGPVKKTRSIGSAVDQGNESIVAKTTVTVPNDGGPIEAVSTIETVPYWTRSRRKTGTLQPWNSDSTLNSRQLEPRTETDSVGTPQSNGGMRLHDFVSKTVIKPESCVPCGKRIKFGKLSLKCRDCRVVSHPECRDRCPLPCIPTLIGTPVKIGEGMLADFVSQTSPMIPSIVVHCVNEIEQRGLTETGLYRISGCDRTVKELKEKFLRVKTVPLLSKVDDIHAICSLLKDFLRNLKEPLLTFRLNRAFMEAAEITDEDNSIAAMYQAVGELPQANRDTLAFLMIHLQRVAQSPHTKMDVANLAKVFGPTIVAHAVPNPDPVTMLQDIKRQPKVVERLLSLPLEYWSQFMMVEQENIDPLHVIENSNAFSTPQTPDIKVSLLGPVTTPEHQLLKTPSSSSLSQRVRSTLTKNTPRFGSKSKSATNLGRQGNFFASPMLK

[5] = target: Cytochrome P450 2C19 (Homo sapiens, UniProt P33261); test: Cytochrome panel assay with activity outcomes. Panel member name: p450-cyp2c19 Compounds with AC50 equal or less than 10 uM are considered active; assay type: functional
Cytochrome P450 2C19, sequence (P33261 whole entry): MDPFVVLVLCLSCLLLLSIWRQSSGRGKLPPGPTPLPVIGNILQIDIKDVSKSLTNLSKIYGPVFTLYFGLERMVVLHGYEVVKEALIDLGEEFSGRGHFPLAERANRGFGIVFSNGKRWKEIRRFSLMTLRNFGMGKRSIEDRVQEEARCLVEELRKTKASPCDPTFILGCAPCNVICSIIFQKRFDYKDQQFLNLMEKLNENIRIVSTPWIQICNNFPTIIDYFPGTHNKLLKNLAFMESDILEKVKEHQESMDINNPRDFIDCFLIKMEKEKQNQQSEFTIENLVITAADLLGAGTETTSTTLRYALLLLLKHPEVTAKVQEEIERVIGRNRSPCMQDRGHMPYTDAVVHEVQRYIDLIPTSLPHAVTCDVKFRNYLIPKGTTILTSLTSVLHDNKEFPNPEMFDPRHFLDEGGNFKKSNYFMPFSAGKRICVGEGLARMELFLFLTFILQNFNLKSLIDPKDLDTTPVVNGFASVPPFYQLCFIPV

[6] = inhibitors of firefly luciferase expression or activity, dose response, H4 neuroglioma cells, luminescence (AID 1990); assay type: functional, cell-based
[7] = Luminescence Cell-Based Dose Response HTS to Identify Inhibitors of 5'UTR Stem-Loop Driven Prion Protein mRNA Translation in H4 Neuroglioblastoma Cells. [Related pubchem assays: 1827 (Project Summary), 1813 (Primary HTS)]; assay type: functional
[8] = inhibitors of SNCA 5'UTR-driven reporter translation, confirmation, H4 neuroglioma cells, luminescence (AID 1988); assay type: functional, cell-based
[9] = test system: Streptococcus sp. 'group A'; test: growth inhibition of control SK(-) GAS strain, dose response, counter-screen for streptokinase expression inhibitor project, luminescence, kanamycin, BacTiterGlo, confirmation (AID 1900); assay type: functional, organism-based
[10] = target: T3, Streptokinase A (Streptococcus pyogenes serotype M1, UniProt P10520); test: S. pyogenes streptokinase expression inhibitors, potency, dose response, plasminogen activation absorbance, OD405 (AID 1914); assay type: functional, Streptococcus pyogenes M1 GAS;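 further: secreted streptokinase activity via plasminogen activation per viability signal from cell pellet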
T3 sequence (P10520 whole entry): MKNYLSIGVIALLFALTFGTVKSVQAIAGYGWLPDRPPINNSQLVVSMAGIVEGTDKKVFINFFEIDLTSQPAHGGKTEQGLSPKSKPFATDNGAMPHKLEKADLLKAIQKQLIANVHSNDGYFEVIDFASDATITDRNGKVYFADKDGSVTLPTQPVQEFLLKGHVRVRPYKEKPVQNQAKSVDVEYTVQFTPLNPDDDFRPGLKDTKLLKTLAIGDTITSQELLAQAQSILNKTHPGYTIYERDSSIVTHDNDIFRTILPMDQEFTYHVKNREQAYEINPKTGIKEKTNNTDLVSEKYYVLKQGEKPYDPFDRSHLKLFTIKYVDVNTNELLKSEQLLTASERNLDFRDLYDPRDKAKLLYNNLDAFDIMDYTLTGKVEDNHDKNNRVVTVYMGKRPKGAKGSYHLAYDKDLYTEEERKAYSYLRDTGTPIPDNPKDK

[11] = test system: Streptococcus; test: Group A Streptococcus viability loss, dose response, counter-screen for streptokinase expression inhibitor project, luminescence, BacTiterGlo (AID 1915); assay type: functional, organism-based;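 further: potency for reduction of bacterial viability or growth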
[12] = test system: H4; test: Luminescence Cell-Based Dose Response HTS to Identify Activators of 5'UTR Stem-Loop Driven Prion Protein mRNA Translation in H4 Neuroglioblastoma Cells. [Related pubchem assays: 1829 (Project Summary), 1814 (Primary HTS)]; assay type: functional; conditions: Homo sapiens

SMILES: NCCCCCCNS(=O)(=O)c1cccc2ccccc12
- AC50 [1]: 25.1 µM (inconclusive)
- AC50 [2]: 0.2 µM (inconclusive)

SMILES: c1ccc([C@H]2CNCc3ccccc32)cc1
- AC50 [3]: 15.8 µM (inconclusive)

SMILES: COc1ccc(NC(=O)N2CC[C@@]3(CCCN(C(=O)c4cccc(F)c4)C3)C2)cc1
- AC50 [1]: 25.1 µM (inconclusive)
- AC50 [3]: 15.8 µM (inconclusive)

SMILES: CCCCN(C)CCNC(=O)CSCc1ccc(C)cc1
- IC50 [4]: 220 µM (active)

SMILES: COc1cc(/C=C2/C(=N)N3OC(C)=CC3=NC2=O)ccc1OCCOc1ccc(C)cc1
- AC50 ([5]; read-out: AC50): 4.47 µM (inconclusive)
- AC50 [3]: 11.2 µM (inconclusive)

SMILES: CN(C)c1ccc(-c2cc(-n3ccnc3)ncn2)cc1
- AC50 [2]: 0.794 µM (inconclusive)

SMILES: CN(Cc1ccccc1)C(=O)CC(c1ccccc1)c1cc(Cl)ccc1O (centres undefined)
- AC50 [1]: 25.1 µM (inconclusive)

SMILES: C=C1C(=O)O[C@@H]2[C@@H]1CC/C(C)=C\CC[C@@]1(C)O[C@H]21
- AC50 [3]: 20 µM (inconclusive) and 12.6 µM (inconclusive)

SMILES: CO[C@@H]1/C=C\O[C@]2(C)Oc3c(C)c(O)c4c(O)c(c(CN5CCN(C)CC5)c(O)c4c3C2=O)NC(=O)/C(C)=C\C=C[C@@H](C)[C@@H](O)[C@H](C)[C@@H](O)[C@H](C)[C@H](OC(C)=O)[C@@H]1C
- AC50 [2]: 6.31 µM (inconclusive)

SMILES: COc1cccc(CN2CCN(Cc3cccc(F)c3)CC2)c1
- IC50 [4]: 86 µM (active)

SMILES: CCOC(=O)c1oc2cc(OC(C)=O)ccc2c(=O)c1-c1ccc(OC)c(OC)c1
- EC50 [6]: > 120 µM (not active)
- EC50 [7]: > 120 µM (not active)
- EC50 [8]: > 120 µM (not active)

SMILES: O=C(Nc1cccc(OC(=O)c2cccnc2)c1)c1cccnc1
- AC50 [2]: 28.2 µM (inconclusive)

SMILES: Oc1nc(N2CCCCCC2)nc(N2CCCCCC2)n1
- AC50 ([5]; read-out: AC50): 5.62 µM (inconclusive)
- AC50 [1]: 22.4 µM (inconclusive)

SMILES: CSc1nncc(-c2ccc(F)c(F)c2)n1
- AC50 [2]: 28.2 µM (inconclusive)

SMILES: CCc1ccc(/C=C2/C(=O)N(c3ccccc3)C(=S)N2CC(=O)OC)s1
- EC50 [6]: > 120 µM (not active)
- EC50 [7]: 11.2 µM (active)
- EC50 [8]: 14.4 µM (active)

SMILES: O=C(COc1ccccc1)Nc1ccc(-c2nnc(-c3ccco3)o2)cc1
- AC50 ([5]; read-out: AC50): 10 µM (inconclusive)
- AC50 [2]: 1.78 µM (inconclusive)

SMILES: O=C(Nc1ccccc1)c1cc([N+](=O)[O-])ccc1NC1CCCCC1
- EC50 [6]: 16.4 µM (active)
- EC50 [7]: > 120 µM (not active)
- EC50 [8]: > 120 µM (not active)

SMILES: NS(=O)(=O)c1nc(S(=O)(=O)O)c2[nH]cnc2n1
- AC50 [5]: inconclusive
- AC50 [1]: 5.01 µM (inconclusive)

SMILES: CC(C)CN(Cc1cc(=O)oc2cc(-c3ccccc3)c(O)cc12)CC(C)C
- EC50 [6]: 12.1 µM (active)
- EC50 [9]: 5.29 µM (active)
- EC50 [7]: > 120 µM (not active)
- EC50 [8]: > 120 µM (not active)
- EC50 [10]: 2.43 µM (active)
- EC50 [11]: 14.3 µM (active)

SMILES: CCC/C=C(\CCC)C(NP(=O)(c1ccccc1)c1ccccc1)c1ccc(-c2ccccc2)cc1 (centres undefined)
- AC50 [1]: 2.51 µM (inconclusive)

SMILES: COc1ccccc1/C=C(/C(=O)OCC(=O)Nc1ccc(N(C)C)cc1)c1ccccc1
- IC50 [4]: 61 µM (active)

SMILES: CCOc1ccc(OCC)c(-c2c(=O)n(OCc3ccc(C(C)(C)C)cc3)c3ccccc3[n+]2[O-])c1
- AC50 [3]: 12.6 µM (inconclusive)

SMILES: COc1cc(OC)cc(C(=O)NC(=S)Nc2ccc(Cl)c(C(=O)O)c2)c1
- AC50 [2]: 12.6 µM (inconclusive)

SMILES: O=C1C2CCCN2C(c2ccccc2F)N1c1ccc(Cl)cc1 (centres undefined)
- AC50 [1]: 2 µM (inconclusive)
- AC50 [3]: 14.1 µM (inconclusive)
- AC50 [2]: 39.8 µM (inconclusive)

SMILES: CN(C)S(=O)(=O)c1ccc(Cl)c(NC(=O)COC(=O)CN2C(=O)C3CCCCC3C2=O)c1 (centres undefined)
- EC50 [6]: > 120 µM (not active)
- EC50 [7]: > 120 µM (not active)
- EC50 [8]: > 120 µM (not active)

SMILES: COc1ccc(C2CC(c3ccc4ccccc4c3)=NN2C(=O)COC(=O)C2CCC(=O)N2)cc1 (centres undefined)
- EC50 [12]: 66.5 µM (active)

SMILES: O=[N+]([O-])c1ccc2c(c1)N=C1O[C@H](c3c[nH]c4ccc(COc5ccccc5)cc34)C(O)=C1N2
- AC50 ([5]; read-out: AC50): 3.16 µM (inconclusive)
- AC50 [3]: 3.16 µM (inconclusive)

SMILES: Fc1ccc(C(OCCN2CCN(C/C=C\c3ccccc3)CC2)c2ccc(F)cc2)cc1
- AC50 [1]: 31.6 µM (inconclusive)
- AC50 [3]: 15.8 µM (inconclusive)

SMILES: Fc1ccccc1Nc1nnc(S)s1
- IC50 [4]: 54.3 µM (active)

SMILES: ClC1(Cl)CC1Cn1c(C2CC2)nc2ccccc21 (centres undefined)
- EC50 [6]: > 120 µM (not active)
- EC50 [7]: > 120 µM (not active)
- EC50 [8]: > 120 µM (not active)

SMILES: COc1cccc(Cn2c(=O)c(CCc3ccccc3)nc3cnc(N(C)C)nc32)c1
- AC50 [3]: 2.51 µM (inconclusive)

SMILES: COc1ccccc1N1CCN(Cc2cccc(Br)c2)CC1
- IC50 [4]: 130 µM (active)

SMILES: COc1ccc(/C=C(/C(=O)Nc2ccccc2C(=O)NC(C)C)c2ccccc2)cc1
- EC50 [6]: 13.7 µM (active)
- EC50 [7]: 83.5 µM (active)
- EC50 [8]: 30.2 µM (active)

SMILES: COc1ccc(NC2CCCN(C(=O)c3ccccc3C(F)(F)F)C2)cc1 (centres undefined)
- IC50 [4]: 75.2 µM (active)

SMILES: CCOC(=O)c1c(C)[nH]c(C)c1C(=O)CSc1nc2ccccc2c(=O)n1-c1ccc(C)cc1
- EC50 [6]: 13.4 µM (active)
- EC50 [7]: > 120 µM (not active)
- EC50 [8]: > 120 µM (not active)

SMILES: CCN=C(S)Nc1cc(Cl)ccc1Oc1ccccc1
- EC50 [6]: > 120 µM (not active)
- EC50 [7]: > 120 µM (not active)
- EC50 [8]: > 120 µM (not active)

SMILES: CC(=O)NN1C(=O)/C(=C\c2ccc(O)cc2)SC1=S
- IC50 [4]: 121 µM (active)

SMILES: Cc1c(NC(=O)C23CC4CC(CC(C)(C4)C2)C3)c(=O)n(-c2ccccc2)n1C
- AC50 [5]: inconclusive
- AC50 [3]: 31.6 µM (inconclusive)

SMILES: COc1ccc(C(=O)N/C(=C/c2cccs2)C(=O)NCCCn2ccnc2)cc1OC
- AC50 ([5]; read-out: AC50): 8.91 µM (inconclusive)
- AC50 [2]: 5.01 µM (inconclusive)

SMILES: COc1cc(N=Nc2ccc(C(=O)N(C)C)cc2)c(C)cc1N
- IC50 [4]: 52.9 µM (active)

SMILES: COc1ccc(C(=O)/C=C/c2ccc(O)cc2)c2c1CC(O)C(C)(C)O2 (centres undefined)
- IC50 [4]: 56.9 µM (active)

SMILES: COc1ccc(N2CCN(C(=O)c3ccc(C[S+]([O-])c4cccc(Cl)c4)o3)CC2)cc1 (centres undefined)
- IC50 [4]: 326 µM (active)

SMILES: Cc1cc(O)c(C)c(O)c1/C=N/NC(=O)c1cccnc1
- IC50 [4]: 101 µM (active)

SMILES: COc1cc(/C(C)=N/NC(=O)C(O)(c2ccccc2)c2ccccc2)ccc1O
- IC50 [4]: 104 µM (active)

SMILES: O=[N+]([O-])c1ccc2nc(N3CCNCC3)ccc2c1 [6-NITROQUIPAZINE]
- AC50 [5]: inconclusive
- AC50 [3]: 10 µM (inconclusive)
